This passage reports IC50 results from patent US20080021026A1, “BENZOTHIOPHENE INHIBITORS OF RHO KINASE” (priority 2006, published 2008).

The term IC50 denotes the midpoint of a concentration-inhibition curve.

The target of the first test is T1, recombinant N-terminal GST-tagged human Rho kinase 2 (ROCK2, amino acids 1-552) (Homo sapiens, UniProt O75116).
T1 construct: ROCK2, amino acids 1-552; purchased Invitrogen Inc. PV3759
T1 sequence (O75116 1-552): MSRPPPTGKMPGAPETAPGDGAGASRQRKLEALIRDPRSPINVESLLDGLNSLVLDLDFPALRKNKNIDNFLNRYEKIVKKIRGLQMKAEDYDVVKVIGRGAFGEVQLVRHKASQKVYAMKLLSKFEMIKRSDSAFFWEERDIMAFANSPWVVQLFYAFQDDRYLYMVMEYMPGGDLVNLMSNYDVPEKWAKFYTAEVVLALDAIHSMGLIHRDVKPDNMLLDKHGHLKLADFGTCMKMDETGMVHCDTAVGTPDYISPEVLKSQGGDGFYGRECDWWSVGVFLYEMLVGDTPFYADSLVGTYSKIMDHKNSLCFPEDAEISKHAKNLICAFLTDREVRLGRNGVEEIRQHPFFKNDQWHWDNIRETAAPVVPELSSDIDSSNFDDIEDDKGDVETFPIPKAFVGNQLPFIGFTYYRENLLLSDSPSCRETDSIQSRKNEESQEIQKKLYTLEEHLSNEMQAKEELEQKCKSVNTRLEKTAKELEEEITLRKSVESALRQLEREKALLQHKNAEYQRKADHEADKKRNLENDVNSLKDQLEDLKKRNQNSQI
Nature of the test: In vitro Rho kinase assay (luciferase-based ATP consumption), ROCK2. Type of test: biochemical. The note with it: ROCK2 IC50, recombinant GST-tagged human ROCK2, luciferase-based ATP consumption. An outline of the steps:
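GST-ROCK2 (aa 1-552, 0.82 μg/ml) with 100 μg/ml S6 peptide and 3 µM ATP in Tris pH 7.5 buffer with MgCl2/CaCl2/EGTA/BSA, compound added just after reaction start, 2 h at 30 °C. Remaining ATP read by luciferase luminescence. Efficacy expressed as percentage of H-1152P positive control.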
`C#CCN(Cc1ccc(Cl)cc1Cl)C(=O)c1ccc2sc(-c3ccnc(N)n3)c(C)c2c1` [Example 559, Cc1c(sc2ccc(cc12)C(═O)N(CC#C)Cc3ccc(Cl)cc3Cl)-c4ccnc(N)n4]: the IC50 was above 5 µM.

As for `Cc1c(-c2ccnc(N)n2)sc2ccc(C(=O)NCc3ccccc3Cl)cc12` [Example 409, Cc1c(sc2ccc(cc12)C(═O)NCc3ccccc3Cl)-c4ccnc(N)n4], the IC50 was below 5 µM.

The test is the same for the next values; noted with them: recombinant GST-tagged human ROCK2, luciferase-based ATP consumption; read-out: ROCK2 IC50.
As to `Cc1c(-c2ccnc(N)n2)sc2ccc(C(=O)N3CCN(c4ccc(C(F)(F)F)cc4)CC3)cc12` [Example 565, Cc1c(sc2ccc(cc12)C(═O)N3CCN(CC3)c4ccc(cc4)C(F)(F)F)-c5ccnc(N)n5], the half-maximal inhibitory concentration (IC50) is above 5 µM.

`Cc1c(-c2ccnc(N)n2)sc2ccc(C(=O)N(CCN(C)C)Cc3ccccc3)cc12` [Example 524, CN(C)CCN(Cc1ccccc1)C(═O)c2ccc3sc(c(C)c3c2)-c4ccnc(N)n4]: the IC50 was below 5 µM.

For the molecule `Cc1c(-c2ccnc(N)n2)sc2ccc(C(=O)N(C)CCC#N)cc12` [Example 465, CN(CCC#N)C(═O)c1ccc2sc(c(C)c2c1)-c3ccnc(N)n3], the half-inhibitory concentration (IC50) is below 5 µM.

For `Cc1c(-c2ccnc(N)n2)sc2ccc(C(=O)N3CCN(c4ccc(C#N)cn4)CC3)cc12` [Example 533, Cc1c(sc2ccc(cc12)C(═O)N3CCN(CC3)c4ccc(cn4)C#N)-c5ccnc(N)n5], the IC50 was below 5 µM.

As for `C#CCNC(=O)c1ccc2sc(-c3ccnc(N)n3)c(C)c2c1` [Example 331, Cc1c(sc2ccc(cc12)C(═O)NCC#C)-c3ccnc(N)n3], the IC50 was below 5 µM.

With `CCN(CCCCO)C(=O)c1ccc2sc(-c3ccnc(N)n3)c(C)c2c1` [Example 490, CCN(CCCCO)C(═O)c1ccc2sc(c(C)c2c1)-c3ccnc(N)n3], the IC50 was below 5 µM.

`Cc1c(-c2ccnc(N)n2)sc2ccc(C(=O)N(Cc3cccnc3)Cc3cccnc3)cc12` [Example 547, Cc1c(sc2ccc(cc12)C(═O)N(Cc3cccnc3)Cc4cccnc4)-c5ccnc(N)n5]: the IC50 was below 5 µM.

With `CNC(=O)c1ccc2sc(-c3ccnc(N)n3)c(C)c2c1` [Example 329, CNC(═O)c1ccc2sc(c(C)c2c1)-c3ccnc(N)n3], the IC50 is below 5 µM.

`Cc1c(-c2ccnc(N)n2)sc2ccc(C(=O)N(C)CCc3ccccc3)cc12` [Example 500, CN(CCc1ccccc1)C(═O)c2ccc3sc(c(C)c3c2)-c4ccnc(N)n4]: the IC50 is below 5 µM.

Take `Cc1c(-c2ccnc(N)n2)sc2ccc(C(=O)NC3CCN(Cc4ccccc4)C3)cc12` (stereo not shown) [Example 448, Cc1c(sc2ccc(cc12)C(═O)NC3CCN(C3)Cc4ccccc4)-c5ccnc(N)n5]: the IC50 was below 5 µM.

Regarding `Cc1c(-c2ccnc(N)n2)sc2ccc(C(=O)NCCCNC(=O)OC(C)(C)C)cc12` [Example 443, Cc1c(sc2ccc(cc12)C(═O)NCCCNC(═O)OC(C)(C)C)-c3ccnc(N)n3], the IC50 is below 5 µM.

In the case of `Cc1c(-c2ccnc(N)n2)sc2ccc(C(=O)NCc3cccnc3)cc12` [Example 364, Cc1c(sc2ccc(cc12)C(═O)NCc3cccnc3)-c4ccnc(N)n4], the IC50 is below 5 µM.

Regarding `Cc1c(-c2ccnc(N)n2)sc2ccc(C(=O)N3CCCCC3CCO)cc12` (stereo not shown) [Example 497, Cc1c(sc2ccc(cc12)C(═O)N3CCCCC3CCO)-c4ccnc(N)n4], the IC50 was above 5 µM.

In the case of `COc1ccc(CNC(=O)c2ccc3sc(-c4ccnc(N)n4)c(C)c3c2)cc1OC` [Example 440, COc1ccc(CNC(═O)c2ccc3sc(c(C)c3c2)-c4ccnc(N)n4)cc1OC], the IC50 is below 5 µM.

`Cc1c(-c2ccnc(N)n2)sc2ccc(C(=O)N(C)Cc3ccccc3)cc12` [Example 492, CN(Cc1ccccc1)C(═O)c2ccc3sc(c(C)c3c2)-c4ccnc(N)n4]: the IC50 was below 5 µM.

For `Cc1c(-c2ccnc(N)n2)sc2ccc(C(=O)NCc3cccs3)cc12` [Example 367, Cc1c(sc2ccc(cc12)C(═O)NCc3cccs3)-c4ccnc(N)n4], the IC50 is below 5 µM.

In the case of `Cc1c(-c2ccnc(N)n2)sc2ccc(C(=O)N(Cc3ccccc3)C(C)C)cc12` [Example 505, CC(C)N(Cc1ccccc1)C(═O)c2ccc3sc(c(C)c3c2)-c4ccnc(N)n4], the IC50 was below 5 µM.

In the case of `Cc1c(-c2ccnc(N)n2)sc2ccc(C(=O)N3CCN(CCc4ccccc4)CC3)cc12` [Example 536, Cc1c(sc2ccc(cc12)C(═O)N3CCN(CC3)CCc4ccccc4)-c5ccnc(N)n5], the IC50 was below 5 µM.

In the case of `Cc1c(-c2ccnc(N)n2)sc2ccc(C(=O)NCCN3CCCC3)cc12` [Example 372, Cc1c(sc2ccc(cc12)C(═O)NCCN3CCCC3)-c4ccnc(N)n4], the IC50 was below 5 µM.

With `Cc1c(-c2ccnc(N)n2)sc2ccc(C(=O)N(C)C3CCCCC3)cc12` [Example 482, CN(C1CCCCC1)C(═O)c2ccc3sc(c(C)c3c2)-c4ccnc(N)n4], the IC50 is below 5 µM.

In the case of `COc1ccc(CNC(=O)c2ccc3sc(-c4ccnc(N)n4)c(C)c3c2)cc1O` [Example 451, COc1ccc(CNC(═O)c2ccc3sc(c(C)c3c2)-c4ccnc(N)n4)cc1O], the IC50 is below 5 µM.

As to `Cc1c(-c2ccnc(N)n2)sc2ccc(C(=O)N(CCO)CCO)cc12` [Example 480, Cc1c(sc2ccc(cc12)C(═O)N(CCO)CCO)-c3ccnc(N)n3], the IC50 is below 5 µM.

For `Cc1c(-c2ccnc(N)n2)sc2ccc(C(=O)N3CCN(c4ccc(C(C)(C)C)cc4)CC3)cc12` [Example 562, Cc1c(sc2ccc(cc12)C(═O)N3CCN(CC3)c4ccc(cc4)C(C)(C)C)-c5ccnc(N)n5], the 50% inhibitory concentration (IC50) was below 5 µM.

Consider `COc1ccc(CNC(=O)c2ccc3sc(-c4ccnc(N)n4)c(C)c3c2)cc1` [Example 403, COc1ccc(CNC(═O)c2ccc3sc(c(C)c3c2)-c4ccnc(N)n4)cc1], for which the half-inhibitory concentration (IC50) was below 5 µM.

Take `CCC(C)NC(=O)c1ccc2sc(-c3ccnc(N)n3)c(C)c2c1` (stereo not shown) [Example 341, CCC(C)NC(═O)c1ccc2sc(c(C)c2c1)-c3ccnc(N)n3]: the IC50 was below 5 µM.

As for `Cc1c(-c2ccnc(N)n2)sc2ccc(C(=O)NCCO)cc12` [Example 337, Cc1c(sc2ccc(cc12)C(═O)NCCO)-c3ccnc(N)n3], the IC50 was below 5 µM.

In the case of `Cc1c(-c2ccnc(N)n2)sc2ccc(C(=O)NN3CCOCC3)cc12` [Example 361, Cc1c(sc2ccc(cc12)C(═O)NN3CCOCC3)-c4ccnc(N)n4], the IC50 is below 5 µM.

For the molecule `CCOc1ccccc1CNC(=O)c1ccc2sc(-c3ccnc(N)n3)c(C)c2c1` [Example 425, CCOc1ccccc1CNC(═O)c2ccc3sc(c(C)c3c2)-c4ccnc(N)n4], the IC50 was below 5 µM.

Regarding `Cc1c(-c2ccnc(N)n2)sc2ccc(C(=O)NC(C)CCCC(C)C)cc12` (stereo not shown) [Example 388, CC(C)CCCC(C)NC(═O)c1ccc2sc(c(C)c2c1)-c3ccnc(N)n3], the half-maximal inhibitory concentration (IC50) is above 5 µM.

As for `Cc1c(-c2ccnc(N)n2)sc2ccc(C(=O)NCCN)cc12` [Example 336, Cc1c(sc2ccc(cc12)C(═O)NCCN)-c3ccnc(N)n3], the IC50 is below 5 µM.

Regarding `Cc1c(-c2ccnc(N)n2)sc2ccc(C(=O)N3CCC(N(C)C(=O)OC(C)(C)C)C3)cc12` (stereo not shown) [Example 549, CN(C1CCN(C1)C(═O)c2ccc3sc(c(C)c3c2)-c4ccnc(N)n4)C(═O)OC(C)(C)C], the IC50 was above 5 µM.

On to `Cc1c(-c2ccnc(N)n2)sc2ccc(C(=O)NN3CCN(C)CC3)cc12` [Example 373, CN1CCN(CC1)NC(═O)c2ccc3sc(c(C)c3c2)-c4ccnc(N)n4], for which the IC50 is below 5 µM.

For the molecule `Cc1c(-c2ccnc(N)n2)sc2ccc(C(=O)NC3CONC3=O)cc12` (stereo not shown) [Example 360, Cc1c(sc2ccc(cc12)C(═O)NC3CONC3═O)-c4ccnc(N)n4], the IC50 was below 5 µM.

Turning to `Cc1c(-c2ccnc(N)n2)sc2ccc(C(=O)NCCc3ccc(F)cc3)cc12` [Example 405, Cc1c(sc2ccc(cc12)C(═O)NCCc3ccc(F)cc3)-c4ccnc(N)n4], the IC50 was below 5 µM.

`CCN(CCO)C(=O)c1ccc2sc(-c3ccnc(N)n3)c(C)c2c1` [Example 470, CCN(CCO)C(═O)c1ccc2sc(c(C)c2c1)-c3ccnc(N)n3]: the IC50 is below 5 µM.

In the case of `COc1cc(CNC(=O)c2ccc3sc(-c4ccnc(N)n4)c(C)c3c2)cc(OC)c1` [Example 439, COc1cc(CNC(═O)c2ccc3sc(c(C)c3c2)-c4ccnc(N)n4)cc(OC)c1], the half-inhibitory concentration (IC50) is below 5 µM.

For the molecule `COc1ccccc1N1CCN(C(=O)c2ccc3sc(-c4ccnc(N)n4)c(C)c3c2)CC1` [Example 541, COc1ccccc1N2CCN(CC2)C(═O)c3ccc4sc(c(C)c4c3)-c5ccnc(N)n5], the half-maximal inhibitory concentration (IC50) is above 5 µM.

For the molecule `Cc1cnc(CNC(=O)c2ccc3sc(-c4ccnc(N)n4)c(C)c3c2)cn1` [Example 381, Cc1cnc(CNC(═O)c2ccc3sc(c(C)c3c2)-c4ccnc(N)n4)cn1], the half-maximal inhibitory concentration (IC50) is below 5 µM.

Consider `C=CCN(C(=O)c1ccc2sc(-c3ccnc(N)n3)c(C)c2c1)C1CCCCC1` [Example 503, Cc1c(sc2ccc(cc12)C(═O)N(CC═C)C3CCCCC3)-c4ccnc(N)n4], for which the half-maximal inhibitory concentration (IC50) is below 5 µM.

As to `Cc1c(-c2ccnc(N)n2)sc2ccc(C(=O)NCCc3ccccc3F)cc12` [Example 406, Cc1c(sc2ccc(cc12)C(═O)NCCc3ccccc3F)-c4ccnc(N)n4], the IC50 is below 5 µM.

Consider `Cc1ccc(N2CCN(C(=O)c3ccc4sc(-c5ccnc(N)n5)c(C)c4c3)CC2)cc1C` [Example 537, Cc1ccc(cc1C)N2CCN(CC2)C(═O)c3ccc4sc(c(C)c4c3)-c5ccnc(N)n5], for which the IC50 is above 5 µM.

Take `Cc1c(-c2ccnc(N)n2)sc2ccc(C(=O)N3CCN(CCN4CCOCC4)CC3)cc12` [Example 548, Cc1c(sc2ccc(cc12)C(═O)N3CCN(CCN4CCOCC4)CC3)-c5ccnc(N)n5]: the IC50 is above 5 µM.

On to `Cc1c(-c2ccnc(N)n2)sc2ccc(C(=O)N3CCN(c4ccc(F)cc4F)CC3)cc12` [Example 546, Cc1c(sc2ccc(cc12)C(═O)N3CCN(CC3)c4ccc(F)cc4F)-c5ccnc(N)n5], for which the IC50 was above 5 µM.

Take `Cc1c(-c2ccnc(N)n2)sc2ccc(C(=O)N3CCN(c4ccc(Cl)c(Cl)c4)CC3)cc12` [Example 567, Cc1c(sc2ccc(cc12)C(═O)N3CCN(CC3)c4ccc(Cl)c(Cl)c4)-c5ccnc(N)n5]: the IC50 was above 5 µM.
